Data as given in patent EP0004590A1, “Penicillin and cephalosporin derivatives, processes for their preparation and their applications” (BAYER AG, priority 1978, dated 1979).

Columns and labels:
[1] = test system: E. coli Neumann; assay: Minimum inhibitory concentration (MHK); format: cell-based
[2] = test system: Serratia 16 001; assay: Minimum inhibitory concentration (MHK); format: cell-based
[3] = test system: Proteus rettg.; assay: Minimum inhibitory concentration (MHK); format: cell-based
[4] = test system: Provid. 12012; assay: Minimum inhibitory concentration (MHK); format: cell-based
[5] = test system: Klebsiella 6097; assay: Minimum inhibitory concentration (MHK); format: cell-based
[6] = test system: E. coli C 165; assay: Minimum inhibitory concentration (MHK); format: cell-based
[7] = test system: Prot. vulg. 9023; assay: Minimum inhibitory concentration (MHK); format: cell-based
[8] = test system: E.coli 183/58; assay: Minimum inhibitory concentration (MHK); format: cell-based
[9] = test system: Escherichia coli Neumann; assay: Animal test with the white mouse, intraperitoneal infection, ED50 after 24 hours; format: in vivo, weiße Maus; settings: sc; white mice strain CF1 infected intraperitoneally with Escherichia coli Neumann; subcutaneous; therapy 30 and 90 minutes after infection; dose at which 50 % of infected animals survive after 24 hours; read-out: ED50 nach 24 Stunden
From the text: Aus der folgenden Tabelle 1 geht die Wirkung einer der erfindungsgemäßen Verbindungen gegen eine Reihe von Bakterien im Tierversuch mit der weißen Maus hervor. Die weißen Mäuse vom Stamm CF1 wurden intraperitoneal mit der jeweils angegebenen Bakterienart infiziert.
Therapie: zweimalig : 30 und 90 Minuten nach der Infektion. Die ED50 ist die Dosis, bei der 50 % der infizierten Tiere nach 24 Stunden nocht überleben.

[10] = test system: Klebs. 63; assay: Minimum inhibitory concentration (MHK); format: cell-based
[11] = test system: Psdm. F 41; assay: Minimum inhibitory concentration (MHK); format: cell-based
[12] = test system: E. coli 4322; assay: Minimum inhibitory concentration (MHK); format: cell-based

With `CN1C(=O)CCN(C(=O)N[C@@H](C(=O)N[C@@H]2C(=O)N3[C@@H]2SC(C)(C)[C@@H]3C(=O)O)c2ccccc2)C1=O` [Beispiel 1] the “Wirksamkeit (MHK in E/ml)” value [1] was 4 E/ml.
In the case of `CN1C(=O)CCN(C(=O)N[C@@H](C(=O)N[C@@H]2C(=O)N3[C@@H]2SC(C)(C)[C@@H]3C(=O)O)c2ccc(O)cc2)C1=O` [Beispiel 2], the “Wirksamkeit (MHK in E/ml)” value [2] is reported as 16 E/ml.
For `CC(=O)OCC1=C(C(=O)O)N2C(=O)[C@@H](NC(=O)[C@H](NC(=O)N3CCC(=O)N(C)C3=O)c3ccccc3)[C@H]2SC1` [Beispiel 3], the “Wirksamkeit (MHK in E/ml)” value [1] was 8-16 E/ml.
In the case of `CCN1C(=O)CCN(C(=O)N[C@@H](C(=O)N[C@@H]2C(=O)N3[C@@H]2SC(C)(C)[C@@H]3C(=O)O)c2ccccc2)C1=O` [Beispiel 4], the “Wirksamkeit (MHK in E/ml)” value [1] is reported as 4 E/ml, the “Wirksamkeit (MHK in E/ml)” value [3] is reported as 16 E/ml and the “Wirksamkeit (MHK in E/ml)” value [4] is reported as 16 E/ml. For the same compound, the “Wirksamkeit (MHK in E/ml)” value [5] was 16 E/ml.
In the case of `CCN1C(=O)CCN(C(=O)N[C@@H](C(=O)N[C@@H]2C(=O)N3[C@@H]2SC(C)(C)[C@@H]3C(=O)O)c2ccc(O)cc2)C1=O` [Beispiel 5], the “Wirksamkeit (MHK in E/ml)” value [6] is reported as 16 E/ml and the “Wirksamkeit (MHK in E/ml)” value [7] is reported as 16 E/ml.
In the case of `CCCN1C(=O)CCN(C(=O)N[C@@H](C(=O)N[C@@H]2C(=O)N3[C@@H]2SC(C)(C)[C@@H]3C(=O)O)c2ccccc2)C1=O` [Beispiel 6], the “Wirksamkeit (MHK in E/ml)” value [8] is reported as 4 E/ml and the “Wirksamkeit (MHK in E/ml)” value [5] is reported as 16 E/ml.
In the case of `CCCN1C(=O)CCN(C(=O)N[C@@H](C(=O)N[C@@H]2C(=O)N3C(C(=O)O)=C(COC(C)=O)CS[C@H]23)c2ccccc2)C1=O` [Beispiel 8], the “Wirksamkeit (MHK in E/ml)” value [1] is reported as 4 E/ml and the “Wirksamkeit (MHK in E/ml)” value [7] is reported as 8 - 16 E/ml.
For `CC1(C)S[C@@H]2[C@H](NC(=O)[C@H](NC(=O)N3CCC(=O)N(C4CC4)C3=O)c3ccccc3)C(=O)N2[C@H]1C(=O)O` [Beispiel 9], the “Wirksamkeit (MHK in E/ml)” value [2] was 16 E/ml, the ED50 [9] was 300 mg/kg and the “Wirksamkeit (MHK in E/ml)” value [10] was 8 - 16 E/ml. The “Wirksamkeit (MHK in E/ml)” value [1] was 4 E/ml.
For `CC1(C)S[C@@H]2[C@H](NC(=O)[C@H](NC(=O)N3CCC(=O)N(C4CC4)C3=O)c3ccc(O)cc3)C(=O)N2[C@H]1C(=O)O` [Beispiel 10], the “Wirksamkeit (MHK in E/ml)” value [11] was 64 E/ml and the “Wirksamkeit (MHK in E/ml)” value [12] was 16 E/ml.
`CC(=O)OCC1=C(C(=O)O)N2C(=O)[C@@H](NC(=O)[C@H](NC(=O)N3CCC(=O)N(C4CC4)C3=O)c3ccccc3)[C@H]2SC1` [Beispiel 11] was tested, and the “Wirksamkeit (MHK in E/ml)” value [8] was 16 E/ml.
